Where two headings read alike, the source gives them in different places. Marks after values point to notes of the source that are not given here.
Key:
[1] = system: patients with chronic atrial fibrillation; assay: PETRO phase 2 12-week dose finding study, dabigatran etexilate alone or with aspirin vs. warfarin; type: in vivo, human
Source text: Primary endpoints were bleeding events and changes in D-dimer. […] Minor bleeding was dose related.

[2] = system: cytochrome P-450 drug metabolizing enzymes; assay: Cytochrome P-450 metabolism, induction and inhibition; type: in vitro ADME
[3] = system: patients with atrial fibrillation
Method: PETRO-Ex began while the PETRO study was ongoing and investigators were initially kept blinded to patient treatment group until PETRO was completed. Unblinding investigators to patient treatment was possible thereafter.
Data were summarized descriptively; no hypothesis was to be tested. Events were analyzed on the basis of the treatment at onset. Incidences were reported as number of patients with events as well as normalized to 100 patient-years on the respective treatment.
Patients who completed PETRO on 50 mg b.i.d. were switched to 150 mg q.d. upon entry in the PETRO-Ex study (N=93 patients). […] Patients who were down titrated to 50 mg q.d. based on a glomerular filtration rate<50 mL/min during PETRO were excluded from the long-term trial; patients down-titrated in other dose levels remained on the q.d. treatment at that dose.

[4] = system: patients with atrial fibrillation at risk of stroke; conditions: warfarin INR 2.0-3.0
Source text: Median follow-up was 2.0 years and the primary outcome was stroke or systemic embolism.
Patients were recruited from 951 clinical centers in 44 countries. In brief, patients were eligible if they had atrial fibrillation documented on electrocardiogram at screening or within 6 months; and at least one of the following: prior stroke or transient ischemic attack; left ventricular ejection fraction less than 40%; New York Heart Association heart failure symptoms of Class 2 or greater within 6 months; age at least 75 years; or age at least 65 years with diabetes mellitus, hypertension or coronary artery disease.
The time in therapeutic range was calculated by the method of Rosendaal (Rosendaal F R, et al., A method to determine the optimal intensity of oral anticoagulant therapy, Thromb Haemost, 1993, 69:236-239), excluding INRs from the first week and after discontinuations. […] Concomitant use of aspirin (less than 100 mg/day) or other antiplatelet agents was allowed.
Liver function testing was performed monthly during the first year of follow-up.
The primary study outcome was stroke or systemic embolism. The primary safety outcome was major hemorrhage. Secondary outcomes were stroke, systemic embolism and death. Other outcomes were myocardial infarction, pulmonary embolism, transient ischemic attacks, and hospitalizations. The primary net benefit-risk outcome was the composite of stroke, systemic embolism, pulmonary embolism, myocardial infarction, death or major hemorrhage. Stroke was defined as sudden onset of focal neurological deficit consistent with the territory of a major cerebral artery and categorized as ischemic, hemorrhagic or unspecified. Hemorrhagic transformation of ischemic stroke was not considered as hemorrhagic stroke. Intracranial hemorrhage included hemorrhagic stroke and sub-dural or sub-arachnoid hemorrhage. Systemic embolism was an acute vascular occlusion of an extremity or organ documented by imaging, surgery or autopsy. Major bleeding was defined as a reduction in hemoglobin level of at least […] or transfusion of at least 2 units of blood or symptomatic bleeding in a critical area or organ. Life-threatening bleeding was a subset of major bleeding that included fatal bleeding, symptomatic intracranial bleeding, bleeding with hemoglobin decrease of more than […] or requiring transfusion of more than 4 units of blood or requiring inotropic agents or necessitating surgery. All other bleeding was considered minor.
All primary and secondary outcome events were blindly and doubly adjudicated. An international team of adjudicators reviewed documents in local languages after blinding; or documents were translated by a independent group and blinded centrally. All transient ischemic attacks were reviewed to ensure that strokes had not been missed. To detect possible unreported events, symptom questionnaires were regularly administered to patients, and adverse events and hospitalization reports were scrutinized for unreported primary or secondary outcomes.
If maximum of the two p-values was greater than 0.025, the minimum of the two p-values must be less than 0.0125, one-sided, to claim statistical significance. All analyses were based on intention-to-treat.

[5] = system: AF patients; conditions: SPORTIF III, cited from earlier work
[6] = system: AF patients; conditions: SPORTIF V, cited from earlier work
[7] = system: AF patients; conditions: ACTIVE W; cited from earlier work
[8] = system: patients who have nonvalvular atrial fibrillation; conditions: meta-analysis; cited from earlier work

## CCCCCCOC(=O)NC(=N)c1ccc(NCc2nc3cc(C(=O)N(CCC(=O)OCC)c4ccccn4)ccc3n2C)cc1 [Dabigatran etexilate, 1-methyl-2-[N-[4-(N-n-hexyloxycarbonylamidino)phenyl]aminomethyl]benzimidazol-5-ylcarboxylic acid-N-(2-pyridyl)-N-(2-ethoxycarbonylethyl)amides]
[1]; 300 mg b.i.d. plus ASA groups, 12 weeks
  Major bleeding events: 6%
[1]; 50, 150, 300 mg b.i.d.
  Minor bleeding: dose related
[1]; all dabigatran etexilate-treated patients (432)
  Elevated transaminases >3x upper limit of normal (ULN): 0.9%
[2]
  Metabolism by, induction or inhibition of cytochrome P-450 enzymes: not metabolized by and does not induce or inhibit cytochrome P-450 drug metabolizing enzymes
[3]; 50 mg b.i.d.
  Adverse Events leading to premature discontinuation, rate: 21.3 % per year
  Thromboembolic events: more than 12 events per 100 years
[3]; 150 mg b.i.d.
  ALT or AST > 2xULN, rate: 3.1 % per year
  ALT or AST > 3xULN and Bili > 2xULN within 30 days, rate: 0.4 % per year
  ALT or AST > 3xULN, rate: 1.9 % per year
  ALT or AST > 5xULN, rate: 1.0 % per year
  Adverse Events leading to premature discontinuation, rate: 9.8 % per year
  Major Bleeds, of these without aspirin, rate: 3.2 % per year
  Major Bleeds, rate: 4.2 % per year
  Major Bleeds, with aspirin, rate: 8.7 % per year
  Stroke and Systemic Thromboembolism, rate: 1.0 % per year
[3]; 150 mg q.d.
  ALT or AST > 2xULN, rate: 3.4 % per year
  Adverse Events leading to premature discontinuation, rate: 13.7 % per year
  Major Bleeds, of these without aspirin, rate: 6.5 % per year
  Major Bleeds, rate: 5.1 % per year
[3]; 150 mg q.d., per 100 years
  Thromboembolic events: about 5 events
[3]; 300 mg b.i.d.
  ALT or AST > 2xULN, rate: 4.9 % per year
  ALT or AST > 3xULN, rate: 2.4 % per year
  ALT or AST > 5xULN, rate: 1.2 % per year
  Adverse Events leading to premature discontinuation, rate: 25.6 % per year
  Bleeding events: more than 12 per 100 years
  Major Bleeds, of these without aspirin, rate: 6.3 % per year
  Major Bleeds, rate: 12.2 % per year
  Major Bleeds, with aspirin, rate: 32.7 % per year
  Thromboembolic events: about 1 event per 100 years
[3]; 300 mg q.d.
  ALT or AST > 2xULN, rate: 1.5 % per year
  ALT or AST > 3xULN and Bili > 2xULN within 30 days, rate: 0.5 % per year
  ALT or AST > 3xULN, rate: 1.5 % per year
  ALT or AST > 5xULN, rate: 1.5 % per year
  Adverse Events leading to premature discontinuation, rate: 9.6 % per year
  Major Bleeds, of these without aspirin, rate: 2.1 % per year
  Major Bleeds, rate: 2.5 % per year
  Major Bleeds, with aspirin, rate: 3.6 % per year
[3]; 300 mg q.d., per 100 years
  Thromboembolic events: more than 2 events
[3]; PETRO-Ex, 150 mg b.i.d., without concomitant aspirin
  Major bleeding events (per 100 patient years): 3.2%*
[3]; PETRO-Ex, all doses
  LFT abnormalities > 3 xULN (per 100 patient years): 1.7%
[3]; Total, all doses
  ALT or AST > 2xULN, rate: 2.9 % per year
  ALT or AST > 3xULN and Bili > 2xULN within 30 days, rate: 0.4 % per year
  ALT or AST > 3xULN, rate: 1.7 % per year
  ALT or AST > 5xULN, rate: 1.1 % per year
  Adverse Events leading to premature discontinuation, rate: 11.5 % per year
  Major Bleeds, of these without aspirin, rate: 3.2 % per year
  Major Bleeds, rate: 4.2 % per year
  Major Bleeds, with aspirin, rate: 8.5 % per year

## CC(=O)CC(c1ccccc1)c1c(O)c2ccccc2oc1=O (racemic) [Warfarin, 3-(α-acetonylbenzyl)-4-hydroxycoumarin]
[4]
  ALT or AST > 3xULN: (2.1) %
  ALT or AST > 3xULN with concurrent bilirubin > 2xULN: (0.4) %
  Adverse Event: Arthralgia: (5.5) %
  Adverse Event: Atrial fibrillation: (5.4) %
  Adverse Event: Back pain: (5.5) %
  Adverse Event: Chest pain: (5.7) %
  Adverse Event: Cough: (5.8) %
  Adverse Event: Diarrhea: (5.5) %
  Adverse Event: Dizziness: (9.3) %
  Adverse Event: Dyspepsia: (1.4) %
  Adverse Event: Dyspnoea: (9.2) %
  Adverse Event: Fatigue: (5.9) %
  Adverse Event: Nasopharyngitis: (5.5) %
  Adverse Event: Peripheral edema: (7.6) %
  Adverse Event: Upper respiratory tract infection: (5.0) %
  Adverse Event: Urinary tract infection: (5.3) %
  Major Bleeding, Life threatening, Rate: 1.80 /100 Person Years
  Major Bleeding, Other Major, Rate: 1.80 /100 Person Years
  Pulmonary embolism, Rate: 0.09 /100 Person Years
  Rate of discontinuation at 2.5 years: 19%
  Rate of hemorrhagic stroke: 0.38 % per year
  Rate of myocardial infarction: 0.54 % per year
  Rate of primary outcome, stroke or systemic embolism: 1.70 % per year
  Reason for discontinuation: Gastrointestinal bleeding: (0.9) %
  Reason for discontinuation: Gastrointestinal disorders (including pain, vomiting and diarrhea): (0.8) %
  Reason for discontinuation: Outcome event: (2.2) %
  Reason for discontinuation: Patient decision: (6.2) %
  Reason for discontinuation: SAE: (1.6) %
  Stroke, systemic embolism, pulmonary embolism, myocardial infarction death or major bleed (net benefit), Rate: 7.99 /100 Person Years
  Study Drug Discontinuation at one year: (10) %
  Study Drug Discontinuation at two years: (19) %
  hepatobiliary disorders (AE): (2.2) %
  hepatobiliary disorders (SAE): (0.4) %
[4]; listed as warfarin
  Study Drug Discontinuation at one year: 10%
[5]
  Myocardial Infarction: 0.6% (warfarin)
[5]; ximelagatran 36 mg b.i.d.
  Stroke and systemic embolism (per 100 patient years): 2.3% (warfarin)
[6]
  Myocardial Infarction: 1.4% (warfarin)
[6]; ximelagatran 36 mg b.i.d.
  Stroke and systemic embolism (per 100 patient years): 1.2% (warfarin)
[7]
  Myocardial Infarction: 0.6% (warfarin)
  Stroke and systemic embolism (per 100 patient years): 1.5% (warfarin)
[8]
  Reduction of the risk of stroke compared to control: 64%

— US20110269799A1 (priority 2008, published 2011)
